The results in this text go back to PubChem BioAssay (NCI).

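Briefly, cells in 96-well plates were exposed to five compound concentrations for 48 h, and endpoints were estimated by linear interpolation. TGI is the concentration that stops growth completely.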

Experiment in all cases: NCI anticancer screen, dose series, 48 h
The subject of assay [1] is A498 renal.
Assay [2] relates to A549 NSCLC.
Assay [3] concerns ACHN renal.
Assay [4] concerns BT-549 breast.
Assay [5] has as its system EKVX NSCLC.
For assay [6], the system named is HCC-2998 colon.
Assay [7] relates to NCI-H226 lung.
The subject of assay [8] is NCI-H23 lung.
Assay [9] deals with NCI-H460 lung.
The subject of assay [10] is SK-OV-3 ovarian.
The test system of assay [11] is T-47D breast.
The test system of assay [12] is TK-10 renal.
The test system of assay [13] is MOLT-4 leukemia.
Assay [14] has as its system RXF 393 renal.

For the compound `CCC(C=O)P1(=O)OC(C)(C)CN1C(C)(C)C` (configuration not stated), the TGI in assay [1], in assay [2], in assay [3], in assay [4], in [5] and in assay [6] was > 100 µM in each case. Moreover, the TGI in [7], in [8], in assay [9], in assay [10], in assay [11] and in assay [12] was > 100 µM throughout.

Take `CCc1nn(CN2CCOCC2)c(=S)n1/N=C/c1ccc(-c2ccc(Cl)cc2)o1`: the TGI in [1], in assay [2], in [3], in assay [4], in assay [5] and in assay [13] was > 100 µM in each case. The TGI in [7], in [8], in [9], in [14], in [11] and in assay [12] was > 100 µM each time.

Take `Cc1cc(C)c(-n2[nH]c(=O)n(C)c2=O)c(C)c1`: the TGI in assay [1], in assay [2], in assay [4], in assay [5], in assay [6] and in assay [13] was > 100 µM in each case. For the same compound, the TGI in [7], in assay [8], in assay [9], in [14], in [10] and in assay [11] was > 100 µM in each case. For the same compound, the TGI in [12] is > 100 µM.

In the case of `CNC(=O)C1(N)c2ccccc2C=Cc2ccccc21`, the TGI in [1], in assay [2], in [3], in [4], in assay [5] and in [13] was > 100 µM in each case. In addition, the TGI in assay [7], in assay [8], in assay [10], in assay [11] and in assay [12] was > 100 µM each time.

On to `Nc1n[n+](CC(=O)c2ccccc2)c2sc(-c3ccccc3)nn12`, for which the TGI in [1], in [2], in assay [3], in assay [4], in [5] and in assay [13] was > 100 µM in each case. The TGI in assay [7], in assay [8], in [9], in assay [14], in assay [10] and in [11] was > 100 µM each time. The TGI in assay [12] was > 100 µM.

As for `CC1=NNC(=O)C1C1CC(c2c[nH]c3ccccc23)=NNC1=O` (configuration not stated), the TGI in assay [1], in [2], in assay [3], in [4], in assay [5] and in [13] was > 100 µM in each case. In addition, the TGI in [7], in [8], in assay [9], in assay [14], in [10] and in assay [11] was > 100 µM throughout. The TGI in [12] was > 100 µM.

Take `O=C1CCCN1C(=O)CS(=O)(=O)c1ccccc1`: the TGI in assay [1], in assay [2], in [3], in assay [4], in assay [6] and in assay [13] was > 100 µM each time. Further, the TGI in assay [7], in assay [8], in assay [9], in [14], in assay [10] and in assay [11] was > 100 µM throughout. The TGI in assay [12] was > 100 µM.

`COc1cc2c(cc1OC)C1C=NC(C2)c2cc(OC)c(OC)cc21` (configuration not stated): the TGI in [1], in [2], in [3], in assay [4], in assay [5] and in assay [6] was > 100 µM each time. Besides, the TGI in assay [13], in assay [7], in [9], in assay [10], in assay [11] and in assay [12] was > 100 µM each time.

Regarding `COc1ccc(C2SCC(=O)N2c2ccc(-c3ccc(-n4c(-c5ccccc5)nc5ccccc5c4=O)cc3)cc2)cc1OC` (configuration not stated), the TGI in assay [1] is > 100 µM; in assay [2], > 100 µM; in [4], 51.1 µM; in assay [5], > 100 µM; in assay [13] it was > 100 µM; in assay [7], > 100 µM. The TGI in assay [8] is > 100 µM; in [9], > 100 µM; in assay [14], > 100 µM; in assay [10], > 100 µM; in assay [11], > 100 µM; in [12], 83.9 µM.

Regarding `CC1=NC(=Cc2cccc(Cl)c2)C(=O)N1n1c(-c2ccccc2)nc2ccccc2c1=O`, the TGI in assay [1] is 83.1 µM; in assay [2], > 100 µM; in assay [3], 52.7 µM; in assay [4], > 100 µM; in [5] it was > 100 µM; in [6], 54.5 µM. In addition, the TGI in assay [13] was 98.3 µM; in assay [7], > 100 µM; in assay [8] it was > 100 µM; in assay [9], 46.5 µM; in assay [10] it was > 100 µM; in assay [11] it was 69 µM. The TGI in assay [12] is > 100 µM.

Consider `CC(=O)Nc1ccc(C(O)/C(=N/N)c2nc3ccc(Cl)cc3[nH]c2=O)cc1` (configuration not stated), for which the TGI in assay [1], in assay [2], in assay [3], in [4], in [5] and in assay [6] was > 100 µM throughout. The TGI in assay [13], in assay [7], in [8], in [9], in [14] and in assay [11] was > 100 µM throughout. Moreover, in assay [12], the TGI was > 100 µM.

In the case of `CCC1(c2ccccc2)C(=O)N=C(c2ccccc2)N1CCc1ccccc1` (configuration not stated), the TGI in [1], in [2], in [3], in assay [4], in assay [5] and in [6] was > 100 µM throughout. Further, the TGI in assay [13], in assay [7], in [8], in assay [14], in assay [10] and in assay [11] was > 100 µM throughout. For the same compound, the TGI in assay [12] was > 100 µM.

For the compound `O=C1OCC2OC(=O)c3cc(O)c(O)c(O)c3-c3c(O)c(O)c(O)c4c3C(=O)OC(C2OC(=O)c2cc(O)c(O)c(O)c2-c2c1cc(O)c(O)c2O)C1OC(=O)c2c-4c(O)c(O)c(O)c2[C@@H]1C(O)C(O)C(O)C(O)CO` (some centres not stated), the TGI is > 100 µM in assay [1]; 43.7 µM in [2]; 30.7 µM in [3]; 55.2 µM in assay [4]; 51.1 µM in assay [5]; 64.2 µM in [6]. Also, the TGI is 49.8 µM in [13]; 42.6 µM in [7]; 43.5 µM in assay [8]; 39.5 µM in assay [9]; 34.3 µM in assay [14]; 59 µM in assay [10]. The TGI in assay [11] turned out to be 45.2 µM.

For the compound `Cn1c(=O)c2[nH]c(CCNC(=O)c3ccccc3)nc2n(C)c1=O`, the TGI in assay [1], in assay [2], in assay [3], in [4], in assay [5] and in assay [6] was > 100 µM throughout. For the same compound, the TGI in assay [13], in [7], in [8], in [9], in assay [14] and in assay [11] was > 100 µM throughout. Moreover, the TGI in [12] was > 100 µM.

`Cc1ccccc1-n1c(=O)c2ncn(C3CCCO3)c2n(-c2ccccc2C)c1=S` (configuration not stated): the TGI in assay [1], in assay [2], in assay [3], in [4], in assay [5] and in [6] was > 100 µM in each case. Further, the TGI in [13], in assay [7], in assay [8], in [14], in [10] and in [11] was > 100 µM each time. Moreover, in assay [12], the TGI was > 100 µM.

For the compound `Cn1c(=O)c2c(nc3n2CC(=O)N3CCCCl)n(C)c1=O`, the TGI in assay [1], in assay [2], in assay [3], in assay [4], in [5] and in [6] was > 100 µM each time. Moreover, the TGI in assay [13], in assay [7], in assay [8], in assay [9], in [10] and in assay [11] was > 100 µM each time. Also, the TGI in assay [12] was > 100 µM.

For `N#Cc1sc2c(c1OC(=O)c1ccccc1)c(=O)n(-c1ccccc1)c(=S)n2-c1ccccc1`, the TGI in assay [2] is > 100 µM; in assay [4] it was > 100 µM; in [5], 68.6 µM; in [6], 68.9 µM; in [13], 51.8 µM; in [7], 40.8 µM. In addition, the TGI in assay [8] is 58.9 µM; in assay [9] it was > 100 µM; in assay [14] it was 32.7 µM; in [10], > 100 µM; in [11] it was 46.9 µM; in [12], > 100 µM.

As for `O=c1[nH]cc(-c2c[nH]c3ccccc23)nc1-c1c[nH]c2ccccc12`, the TGI in [1] was 27.9 µM; in assay [2] it was > 100 µM; in [3], 25 µM; in assay [4], 28.7 µM; in [5], 24.6 µM; in [6] it was 21.6 µM. Further, the TGI in [8] came out at 31.5 µM; in assay [9] it was 43.4 µM; in assay [14], 10.3 µM; in assay [10], 26.2 µM; in assay [11] it was 41.9 µM; in [12] it was 30.5 µM.

With `O=C(NC1CCCCC1NC(c1ccccc1)(c1ccccc1)c1ccccc1)C(=O)NC1CCCCC1NC(c1ccccc1)(c1ccccc1)c1ccccc1` (configuration not stated), the TGI in assay [1], in [2], in assay [3], in assay [4], in [5] and in assay [6] was > 100 µM throughout. Moreover, the TGI in assay [13] is > 100 µM; in [7], > 100 µM; in [8], > 100 µM; in assay [9], > 100 µM; in assay [10] it was 92.8 µM; in assay [11], > 100 µM. Further, in [12], the TGI is > 100 µM.

Take `CC1(C)C=Cc2c(cc(O)c3c(=O)c4cc(Cl)ccc4[nH]c23)O1`: the TGI in assay [2] is > 10 µM; in assay [3], > 10 µM; in [4] it was 8.06 µM; in assay [5] it was > 10 µM; in assay [6] it was > 10 µM; in assay [13], 8.22 µM. The TGI was 6.54 µM in assay [8]; > 10 µM in assay [9]; > 10 µM in [14]; > 10 µM in assay [10]; > 10 µM in assay [11]; > 10 µM in assay [12].

As to `COc1cc2c(c(OC)c1)/C(=C/Sc1ccccc1)C(=O)N(C(C)(C)C)C2`, the TGI is 78.1 µM in assay [1]; > 100 µM in [3]; 83 µM in [4]; > 100 µM in assay [5]; > 100 µM in [6]; > 100 µM in assay [13]. Further, the TGI in assay [7] was > 100 µM; in [8], 77.1 µM; in assay [10], 76.9 µM; in assay [11] it was > 100 µM; in [12], > 100 µM.
